glass transition temperature [°C] | Compound
353.00 | *c1ccc(-c2cc(C(C)(C)C)c(Oc3ccc(N4C(=O)c5ccc(Oc6ccc7c(c6)C(=O)N(*)C7=O)cc5C4=O)cc3C(F)(F)F)c(C(C)(C)C)c2)cc1 (repeat unit)
-33.00 | *O[Si](*)(C)CCCCCCCCCCCOc1ccc(/C=C/c2ccc(OCCCC)cc2)cc1 (repeat unit)
110.00 | *Oc1cccc(NC(=O)CCCCCCCCCCC(=O)Nc2ccc(*)cc2)c1 (repeat unit)
62.00 | *C(=O)OCCCCCCCCCOC(=O)c1ccc(N2C(=O)c3ccc(*)cc3C2=O)cc1 (repeat unit)
243.00 | *Oc1ccc(-c2ccc(OC(=O)/C=C/c3ccc(/C=C/C(*)=O)cc3)cc2)cc1 (repeat unit)
268.00 | *Oc1cc(C(C)(C)C)c(Oc2ccc(C(=O)Nc3ccc(C(c4ccc(NC(=O)c5ccc(*)cc5)cc4)(C(F)(F)F)C(F)(F)F)cc3)cc2)cc1C(C)(C)C (repeat unit)
45.00 | *CC(*)(C)C(=O)NC(=O)OC(C)COc1c(Br)cc(S(=O)(=O)c2cc(Br)c(OCC(C)O)c(Br)c2)cc1Br (repeat unit)
174.00 | *Oc1ccc(C(=O)c2ccccc2)c(-c2cc(Oc3ccc(-c4ccc(*)cc4)cc3)ccc2C(=O)c2ccccc2)c1 (repeat unit)
134.00 | *Cc1ccc(C(C)(CCC)c2ccc(Cn3c(=O)c4cc5c(=O)n(*)c(=O)c5cc4c3=O)o2)o1 (repeat unit)
228.00 | *Oc1cc(C)c(C(c2cc(C(C)C)c(Oc3ccc(C(=O)c4ccc(*)cc4)cc3)cc2C)c2ccccc2C(=O)O)cc1C(C)C (repeat unit)
172.00 | *c1ccc(Cc2ccc(N3C(=O)C(Cl)=C(Oc4ccc(C(C)(C)c5ccc(OC6=C(Cl)C(=O)N(*)C6=O)cc5)cc4)C3=O)cc2)cc1 (repeat unit)
245.00 | *c1ccc(Oc2cccc(NC(=O)c3cc(C(=O)Nc4cccc(Oc5ccc(-c6nnc(*)o6)cc5)c4)cc(N4C(=O)c5ccccc5C4=O)c3)c2)cc1 (repeat unit)
325.00 | *c1ccc(OC(=O)c2cccc(C(=O)Oc3ccc(C4(*)NC(=O)c5ccccc54)cc3)c2)cc1 (repeat unit)
212.00 | *CC(C)N1C(=O)C2C3C=CC(C4C(=O)N(*)C(=O)C34)C2C1=O (repeat unit)
267.00 | *c1ccc(Oc2ccc(N3C(=O)c4cccc(Oc5ccc(S(=O)(=O)c6ccc(Oc7cccc8c7C(=O)N(*)C8=O)cc6)cc5)c4C3=O)cc2)cc1 (repeat unit)
5.10 | *[O][Ca][O]C(=O)c1ccccc1C(=O)OCCCCCOC(=O)Nc1cc(NC(=O)OCCCCCOC(=O)c2ccccc2C(*)=O)ccc1C (repeat unit)
262.00 | *CC(=O)Nc1ccc(Oc2ccc(NC(=O)c3ccc4c(c3)C(=O)N(*)C4=O)cc2)cc1 (repeat unit)
166.00 | *O[Si](Oc1ccc(C2(c3ccc(*)cc3)c3ccccc3-c3ccccc32)cc1)(c1ccccc1)c1ccccc1 (repeat unit)
9.00 | *CC(*)C(=O)OC(F)(F)C(F)(F)C(F)(F)C(F)(F)C(F)(F)C(F)(F)C(F)(F)C(F)(F)F (repeat unit)
198.00 | *Oc1c(F)c(F)c(-c2c(F)c(F)c(Oc3ccc(Cc4ccc(*)c(C=O)c4)cc3C=O)c(F)c2F)c(F)c1F (repeat unit)
263.00 | *C(=O)Nc1ccc(Oc2cccc(NC(=O)c3ccc4c(c3)C(=O)N(c3ccc(Oc5ccc6ccc(Oc7ccc(N8C(=O)c9ccc(*)cc9C8=O)cc7)cc6c5)cc3)C4=O)c2)cc1 (repeat unit)
369.50 | *Oc1cccc(Oc2ccc3c(=O)n4c5cc(Oc6ccc7c(c6)nc6c8ccc(*)c9cccc(c(=O)n76)c98)ccc5nc4c4cccc2c34)c1 (repeat unit)
290.00 | *c1c(C)cc(-c2cc(C)c(N3C(=O)c4ccc(S(=O)(=O)c5ccc6c(c5)C(=O)N(*)C6=O)cc4C3=O)c(C)c2)cc1C (repeat unit)
116.00 | *c1ccc2c3ccc(-c4ccc(-c5ccc(-c6ccc(*)s6)c6nccnc56)s4)cc3n(C(CCCCCCCC)CCCCCCCC)c2c1 (repeat unit)
55.00 | *CCCCCCCCNC(=O)CC(=O)N* (repeat unit)
169.00 | *OC1C(C)(C)C(OC(=O)C2CCC(C(*)=O)CC2)C1(C)C (repeat unit)
40.00 | *CC(*)(C)C(=O)OCCCCCCCCCCn1c2ccccc2c2cc(/C=C(\C#N)c3ccc([N+](=O)[O-])cc3)ccc21 (repeat unit)

glass transition temperature [°C] | Compound
64.00 | *CCCCCCCCCc1nc2ccc(-c3ccc4nc(*)oc4c3)cc2o1 (repeat unit)
-31.5 | *CC(C)(C)COC(=O)CCCCC(=O)O* (repeat unit)
71.20 | *C[Si](*)(C)CCCn1c2ccccc2c2ccccc21 (repeat unit)
216.00 | *C(=O)Nc1ccc(NC(=O)c2ccc3c(c2)C(=O)N(c2ccc(NC(=O)Nc4ccc(N5C(=O)c6ccc(*)cc6C5=O)cc4)cc2)C3=O)cc1 (repeat unit)
200.00 | *Oc1ccc(C2(C)CCC(C(C)(C)c3ccc(Oc4ccc(C(=O)c5ccc(*)cc5)cc4)cc3)CC2)cc1 (repeat unit)
292.00 | *c1ccc(NC(=O)Nc2ccc(NC(=O)Nc3ccc(-c4nc(-c5ccc([N+](=O)[O-])cc5)[nH]c4*)cc3)cc2)cc1 (repeat unit)
178.00 | *C(=O)NCCN(CCNC(=O)c1ccc(N2C(=O)c3ccc(*)cc3C2=O)cc1)c1ccc(/C=C/c2ccc([N+](=O)[O-])cc2)cc1 (repeat unit)
55.00 | *c1ncnc(N(CCCCCCCCCCN(*)c2ccccc2)c2ccccc2)n1 (repeat unit)
30.50 | *CC1CC(*)C(OC(=O)CCCCCCCCCCOc2ccc(-c3ccc(C#N)cc3)cc2)C1 (repeat unit)
119.00 | *Oc1ccc(C(C)(CC)c2ccc(OC(*)=O)c(C)c2)cc1C (repeat unit)
22.00 | *Oc1ccc(CC(NC(=O)Cc2ccc(OC(=O)CCCCCCC(*)=O)cc2)C(=O)OCCCCCCCC)cc1 (repeat unit)
-4.00 | *CCCCCCOC(=O)OCCOC(=O)OCCCCCCOc1ccc(Oc2ccc(O*)cc2)cc1 (repeat unit)
95.00 | *OC(C)COC(=O)c1ccccc1C(*)=O (repeat unit)
165.00 | *CC(*)(C)C(=O)OC1(C)C2CC3CC(C2)CC1C3 (repeat unit)
264.00 | *c1ccc(Oc2ccccc2N2C(=O)c3ccc(Oc4ccc5c(c4)C(=O)N(*)C5=O)cc3C2=O)cc1 (repeat unit)
24.00 | */C=C/C1CC(*)C([Si](C)(C)C[Si](C)(C)C)C1 (repeat unit)
260.00 | *c1ccc(Cc2ccc(N3C(=O)C4CCC(C5CCC6C(=O)N(*)C(=O)C6C5)CC4C3=O)cc2)cc1 (repeat unit)
-72.00 | *O[Si](C)(C)O[Si](C)(C)O[Si](C)(C)O[Si](C)(C)c1ccc([Si](*)(C)C)cc1 (repeat unit)
303.00 | *c1ccc2c(c1)C(=O)N(c1cc(Br)c(Oc3c(Br)cc(N4C(=O)c5ccc(C(*)(C(F)(F)F)C(F)(F)F)cc5C4=O)cc3Br)c(Br)c1)C2=O (repeat unit)
172.00 | *Oc1ccc(C(C)(C)c2ccc(Oc3ccc(C(=O)c4ccccc4-c4ccccc4C(=O)c4ccc(*)cc4)cc3)cc2)cc1 (repeat unit)
276.00 | *C(=O)Nc1ccc(Oc2c(C)cc(C(C)(C)c3cc(C)c(Oc4ccc(NC(=O)c5ccc6c(c5)C(=O)N(c5ccc(Oc7ccc(C8(c9ccc(Oc%10ccc(N%11C(=O)c%12ccc(*)cc%12C%11=O)cc%10)cc9)CC9CC8C8CCCC98)cc7)cc5)C6=O)cc4)c(C)c3)cc2C)cc1 (repeat unit)
-51.00 | *CCOCCOC(=O)CCCCC(=O)O* (repeat unit)
30.00 | *Oc1ccc(CC(NC(=O)Cc2ccc(OC(=O)CC(C)CCC(*)=O)cc2)C(=O)OCCCCCCCC)cc1 (repeat unit)
150.00 | *c1cnc(C2C(c3ccccc3)C(*)C2c2ccccc2)cn1 (repeat unit)
348.00 | *c1ccc(Oc2ccc(N3C(=O)c4cc(-c5ccc([Si](C)(C)C)cc5)c(-c5cc6c(cc5-c5ccc([Si](C)(C)C)cc5)C(=O)N(*)C6=O)cc4C3=O)cc2)cc1 (repeat unit)
237.00 | *c1ccc(C(=O)NNC(=O)c2ccc(C(=O)NNC(=O)c3ccc(C4(*)OC(=O)c5ccccc54)cc3)cc2)cc1 (repeat unit)

Compound | glass transition temperature [°C]
*CC(*)(C)C(=O)OCCN(CC)CC (repeat unit) | 26.00
*CC(*)(CCCCCCCC)C(=O)OC (repeat unit) | 34.00
*CC(CO*)(CSC)CSC (repeat unit) | -6.00
*c1cccc(P(C)(=O)c2cccc(N3C(=O)c4ccc(Oc5ccc(C(C)(C)c6ccc(Oc7ccc8c(c7)C(=O)N(*)C8=O)cc6)cc5)cc4C3=O)c2)c1 (repeat unit) | 228.00
*C(F)(F)C(*)(F)OC(F)(F)C(F)(F)F (repeat unit) | 29.00
*C/C=C/CS(*)(=O)=O (repeat unit) | 86.00
*Nc1ccc(Cc2ccc(NC(=O)c3ccc(P(=O)(c4ccccc4)c4ccc(C(*)=O)cc4)cc3)cc2)cc1 (repeat unit) | 307.00
*CC(OCCCC)C1C(=O)OC(=O)C1* (repeat unit) | 118.00
*CC(*)c1ccc(C(C)(O)CC)cc1 (repeat unit) | 190.00
*CCCCP(C)(=O)CCCNC(=O)CCCCC(=O)N* (repeat unit) | 59.00
*CCCCCCCCCCOc1ccc(/C=C/c2ccc(OCCCCCCCCCCOP(=O)(O*)OCCCCCCCCCCOc3ccc(/N=N/c4ccc(Cl)cc4)cc3)cc2)cc1 (repeat unit) | 60.00
